Source: patent publication US20250256007A1, “GELMA POLYMER COMPOSITIONS COMPRISING CELLS” (GelMEDIX, Inc., priority 2022, published 2025)
Like-named read-outs stand apart in the source and are kept apart here.

How the values were obtained:
[1] = tested on: RPE cells; test: Cytotoxicity studies of propagators with RPE cells
Text: Cytotoxicity studies were also completed with RPE cells for: NVC, NVP, EGDA, and phenylacetyl bromide (BAP), with 10% DMSO as a control.

[2] = Minimum propagator concentration for hydrogel formation; type: physicochemical; conditions: 1 minute crosslinking at ˜0.43 W
Method: (§1) Each of the three propagators (NVC, NVP, EGDA) were combined with G5(80) [5% GelMA, 80% DoM] at 10 uL/mL propagator concentration, and then gelled. Average Young's Modulus (kPa) for resulting hydrogels were as follows: EGDA [7.2494 kPa]; NVP [6.4995 kPa]; NVC [3.4744 kPa]. NVP and EGDA were also tested for a minimum concentration in G5 (10) and G5(80) which would still allow for hydrogel formation (1 minute crosslinking at ˜0.43 W). Minimum propagator concentrations for hydrogel formation were as follows: G5 (10) [NVP—5 uL/mL; EGDA—1.5 uL/mL]; G5 (80) [NVP—0.3 uL/mL; EGDA—0.1 uL/mL]

[3] = Young's Modulus of hydrogels with radical propagators; type: physicochemical; conditions: propagator at 10 uL/mL in G5(80) [5% GelMA, 80% DoM], gelled
Method: as §1

Compound | Cell viability (cytotoxicity) [1] | Minimum propagator concentration for hydrogel formation ([2]; in G5 (10)) | Minimum propagator concentration for hydrogel formation ([2]; in G5 (80)) | Average Young's Modulus [3] | Cell viability (cytotoxicity) ([1]; after 18 hours of cell incubation, RPE cells, FIG. 19)
C=CC(=O)OCCOC(=O)C=C [EGDA, Ethylene Glycol Diacrylate] | low cell viability | 1.5 uL/mL | 0.1 uL/mL | 7.2494 kPa | –
C=CN1CCCC1=O [NVP, N-Vinylpyrrolidone] | higher average cell viability than NVC | 5 uL/mL | 0.3 uL/mL | 6.4995 kPa | –
C=CN1CCCCCC1=O [NVC, N-vinylcaprolactam] | – | – | – | 3.4744 kPa | –
O=C(Br)Cc1ccccc1 [BAP, phenylacetyl bromide] | – | – | – | – | higher average cell viability than NVC
